In experiment [1] the target is full-length human LSD1 (Homo sapiens (Human), UniProt O60341). Briefly: In vitro enzyme inhibition assay LSD-1 (TR-FRET). The following applies: TR-FRET, 0.1 nM LSD1, 50 nM H3K4me1-biotin peptide, 2 μM FAD, pH7.3; read-out: LSD1 IC50. It is filed as biochemical. The method, then: This assay determines the ability of a test compound to inhibit LSD1 demethylase activity.
The enzymatic assay of LSD1 activity is based on Time Resolved-Fluorescence Resonance Energy Transfer (TR-FRET) detection.
The ability of the compounds disclosed herein to inhibit LSD1 activity was quantified and the respective IC50 value was determined. Table 5 provides the IC50 values of various substituted heterocyclic compounds disclosed herein.
A general note: TR-FRET usually uses a lanthanide donor and a delayed reading to cut background.

Experiment [2] has as its system THP-1 (AML) cells. In words: LSD1 CD11b cellular assay (flow cytometry). The following applies: Homo sapiens, 96 h; CD11b expression in THP-1 (AML) cells, flow cytometry, 4 days incubation; read-out: Cellular IC50. The experiment is classed as cell-based. The method in brief:
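THP-1 AML cells treated with serially diluted compound (0.2% DMSO final) for 4 days at 37 °C, 5% CO2. CD11b expression measured by flow cytometry with DAPI staining; IC50 derived from percent CD11b-positive cells versus inhibitor concentration.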
On the technique in general: In flow cytometry, cells or beads pass a laser one at a time.

As a reminder, the IC50 is the concentration needed to halve the response being measured.

As to `CNc1nc(N2CCC(N)CC2)nc(-c2ccc(C#N)c(F)c2)c1-c1cnc2c(c1)nnn2C` [Example 171, 4-[2-(4-aminopiperidin-1-yl)-5-{3-methyl-3H-[1,2,3]triazolo[4,5-b]pyridin-6-yl}-6-(methylamino)pyrimidin-4-yl]-2-fluorobenzonitrile], the half-maximal inhibitory concentration (IC50) in experiment [1] and in experiment [2] was under 100 nM in each case.

With `CNc1nc(N2CCCNCC2)nc(-c2ccc(C#N)cc2)c1-c1ccc2nn(C)cc2c1` [Example 172, 4-[2-(1,4-diazepan-1-yl)-5-(2-methyl-2H-indazol-5-yl)-6-(methylamino)pyrimidin-4-yl]benzonitrile], the half-inhibitory concentration (IC50) in experiment [1] and in experiment [2] was under 100 nM in each case.

Regarding `CNc1nc(N2CCC(N(C)C)CC2)nc(-c2ccc(C#N)cc2)c1-c1ccc2nn(C)cc2c1` [Example 173, 4-{2-[4-(dimethylamino)piperidin-1-yl]-5-(2-methyl-2H-indazol-5-yl)-6-(methylamino)pyrimidin-4-yl}benzonitrile], the IC50 in experiment [1] and in experiment [2] was under 100 nM throughout.

Consider `CNc1nc(N2CCC(N)CC2)nc(-c2ccc(C#N)cc2)c1-c1cnn(CC(F)(F)F)c1` [Example 174, 4-[2-(4-aminopiperidin-1-yl)-6-(methylamino)-5-[1-(2,2,2-trifluoroethyl)-1H-pyrazol-4-yl]pyrimidin-4-yl]-benzonitrile], for which the IC50 in experiment [1] and in experiment [2] was under 100 nM each time.

In the case of `CNc1nc(N2CCC(N)CC2)nc(-c2ccc(C#N)c(F)c2)c1-c1cnc2c(cnn2C)c1` [Example 175, 4-[2-(4-aminopiperidin-1-yl)-5-{1-methyl-1H-pyrazolo[3,4-b]pyridin-5-yl}-6-(methylamino)pyrimidin-4-yl]-2-fluorobenzonitrile], the half-inhibitory concentration (IC50) in experiment [1] and in experiment [2] was under 100 nM each time.

`CNc1nc(N2CCC(N)CC2)nc(-c2ccc(C#N)cc2)c1-c1cnc2c(c1)nnn2C` [Example 176, 4-[2-(4-aminopiperidin-1-yl)-5-{3-methyl-3H-[1,2,3]triazolo[4,5-b]pyridin-6-yl}-6-(methylamino)pyrimidin-4-yl]benzonitrile]: the 50% inhibitory concentration (IC50) in experiment [1] and in experiment [2] was under 100 nM throughout.

Take `CNc1nc(N2CC[C@@H](N)[C@@H](F)C2)nc(-c2ccc(C#N)cc2)c1-c1ccc2nn(C)cc2c1` [Example 177, 4-{2-[(3S,4R)-4-amino-3-fluoropiperidin-1-yl]-5-(2-methyl-2H-indazol-5-yl)-6-(methylamino)pyrimidin-4-yl}benzonitrile]: the concentration for half-maximal inhibition (IC50) in experiment [1] and in experiment [2] was under 100 nM throughout.

As for `CNc1nc(N2CC[C@H](N)[C@H](F)C2)nc(-c2ccc(C#N)cc2)c1-c1ccc2nn(C)cc2c1` [Example 178, 4-{2-[(3R,4S)-4-amino-3-fluoropiperidin-1-yl]-5-(2-methyl-2H-indazol-5-yl)-6-(methylamino)pyrimidin-4-yl}benzonitrile], the IC50 in experiment [1] and in experiment [2] was under 100 nM throughout.

For the origin of these results see US10131664B2 (Celgene Quanticel Research, Inc., priority 2013, dated 2018).
